Tests used:
nitrification [1] = assay: Example 3: soil column trial (soil Limburgerhof) with ammonium sulfate, DMPP, DMPSA or DMPP+DMPSA; leaching at 5° C., incubation 10 d or 20 d at 15° C.; NH4-N/NO3-N, % inhibition of NO3-N formation (Böhland), Colby; conditions: 0.05% DMPP, 0.45% DMPSA
Text: The effect on NH4^+ retention and NH4^+ to NO3^− ratios in the soil after fertilization of ammonium sulfate with the addition of DMPP, DMPSA or a combination of DMPP and DMPSA was investigated in column trials simulating climatic conditions of spring time in central Europe. Soil Limburgerhof (pH(CaCl2) 6.8, texture: 73% sand; 24% silt, 3% clay) was filled dry into a glass column with an inner width of 4 cm. At the bottom 0.4 g cotton wool was placed above which a frit (Co. Robu, pore size 1) was placed above which 100 g of 2 mm sieved soil Limburgerhof was layered. The soil height in the column was about 7 cm. Before fertilization the soil was brought to about 60% of its water holding capacity (WHC) be adding 14.4 mL of deionized water. Per column 10 mg NH4—N as ammonium sulfate was fertilized or not (control) together or not with 0.05% DMPP (DMPP obtained from BASF SE), 0.45% DMPSA (DMPSA used as free acid obtained from BASF SE) and 0.05% DMPP plus 0.45% DMPSA (% of nitrification inhibitor w/w of NH4—N). Every treatment was replicated three times.
After fertilization, 50 mL demineralized water was carefully and slowly placed on top of each column which equals about 31 mm precipitation. After 24 h the eluate was collected and by sucking off the soil to bring it back to about 60% of its WHC. All handlings including soil preparation, fertilization and the temperature of the water for both wetting the soil and the artificial precipitation up to the collection of the eluate 24 h after fertilization was performed at 5° C.
(§1) Thereafter, the columns were incubated for 10 d or 20 d at constantly 15° C. in an incubator. After 7 d and 14 d, water was added by weight where needed to bring the soils uniformly to 60% WHC. After 10 d or 20 d, the soil was removed from the columns and extracted with 1% (w/w) K2SO4 solution by shaking for 2 h at room temperature. The filtrated extract was then analyzed for NH4^+ and NO3 colorimetrical by an autoanalyzer.
(§2) To calculate the inhibition of nitrate formation by the nitrification inhibitors during the incubation, the above-mentioned Böhland equation was used. To examine synergistic effects of the combination of DMPP+DMPSA the formula by Colby (Colby, S.R., “Calculating synergistic and antagonistic responses of herbicide Combinations”, Weeds, 15, pp. 20-22, 1967) was used. To determine background levels of NH4+ to NO3−, every treatment was also extracted immediately after fertilization and after leaching prior to the further incubation at 15° C. for 10 d or 20 d.

nitrification [2] = assay: Example 4: soil column trial (soil Limburgerhof), DMPSA and DMPP, other weight ratios; incubation 10 d at 15° C.; % inhibition of NO3-N formation (Böhland), Colby; conditions: 10 days of incubation at 15° C.
Text: The effect on NH4+ retention and NH4+ to NO3− ratios in the soil after fertilization of ammonium sulfate with the addition of DMPP, DMPSA or a combination of DMPP and DMPSA was investigated in column trials simulating climatic conditions of spring time in central Europe. Soil Limburgerhof (pH(CaCl2) 6.8, texture: 73% sand; 24% silt, 3% clay) was filled dry into a glass column with an inner width of 4 cm. At the bottom 0.4 g cotton wool was placed above which a frit (Co. Robu, pore size 1) was placed above which 100 g of 2 mm sieved soil Limburgerhof was layered. The soil height in the column was about 7 cm. Before fertilization the soil was brought to about 60% of its water holding capacity (WHC) be adding 14.4 mL of deionized water. Per column 10 mg NH4—N as ammonium sulfate was fertilized or not (control) together or not with 0.005% or 0.015% DMPP (DMPP obtained from BASF SE), 0.45% DMPSA (DMPSA used as free acid obtained from BASF SE) and […] or 0.015% DMPP plus 0.45% DMPSA (% of nitrification inhibitor w/w of NH4-N). Every treatment was replicated three times. After fertilization, 50 mL demineralized water was carefully and slowly placed on top of each column which equals about 31 mm precipitation. After 24 h the eluate was collected and by sucking off the soil to bring it back to about 60% of its WHC. All handlings including soil preparation, fertilization and the temperature of the water for both wetting the soil and the artificial precipitation up to the collection of the eluate 24 h after fertilization was performed at 5° C.
as §1, with “d” for “d,”, “NH4+” for “NH4^+”, “NO3−” for “NO3”
as §2

[3] = 10 days of incubation at 15° C.
[4] = 20 days of incubation at 15° C.
[5] = 0.015% DMPP, alone or + 0.45% DMPSA

With Cc1c[nH]nc1C.O=P(O)(O)O [DMPP, 3,4-dimethyl pyrazole phosphate and/or 4,5-dimethyl pyrazole phosphate] the “During incubation: % inhibition of NO3—N formation by NI acc. to Böhland equation (1973) (MV)” value (“During incubation: % inhibition” for short) (nitrification [1]; [3]) was 69.8%, the “Net NI effect % NH4 from fertilized NH4 (MV)” value (“Net NI effect % NH4” for short) (nitrification [1]; [3]) was 41.02% and the “Ratio NH4—N/NO3—N (MV)” value (nitrification [1]; [3]) was 2.86. For the same compound, the “Soil mg/100 g NH4—N (MV)” value (nitrification [1]; [3]) was 6.58 mg/100 g, the “Soil mg/100 g NO3—N (MV)” value (nitrification [1]; [3]) was 2.34 mg/100 g and the “During incubation: % inhibition” value (nitrification [1]; [4]) was 14.9%. The “Net NI effect % NH4” value (nitrification [1]; [4]) was 6.67%, the “Ratio NH4—N/NO3—N (MV)” value (nitrification [1]; [4]) was 0.08 and the “Soil mg/100 g NH4—N (MV)” value (nitrification [1]; [4]) was 0.68 mg/100 g. For the same compound, the “Soil mg/100 g NO3—N (MV)” value (nitrification [1]; [4]) was 8.60 mg/100 g, the “During incubation: % inhibition” value (nitrification [2]; 0.005% DMPP, 0.45% DMPSA) was −4.6% and the “Net NI effect % NH4” value (nitrification [2]; 0.005% DMPP, 0.45% DMPSA) was 6.22%. The “Ratio NH4—N/NO3—N (MV)” value (nitrification [2]; 0.005% DMPP, 0.45% DMPSA) was 0.10, the “Soil mg/100 g NH4—N (MV)” value (nitrification [2]; 0.005% DMPP, 0.45% DMPSA) was 0.65 mg/100 g and the “Soil mg/100 g NO3—N (MV)” value (nitrification [2]; 0.005% DMPP, 0.45% DMPSA) was 6.94 mg/100 g. For the same compound, the “During incubation: % inhibition” value (nitrification [2]; [5]) was 15.7%, the “Net NI effect % NH4” value (nitrification [2]; [5]) was 11.49% and the “Ratio NH4—N/NO3—N (MV)” value (nitrification [2]; [5]) was 0.21. For the same compound, the “Soil mg/100 g NH4—N (MV)” value (nitrification [2]; [5]) was 1.18 mg/100 g and the “Soil mg/100 g NO3—N (MV)” value (nitrification [2]; [5]) was 5.59 mg/100 g.

From US20210371351A1, “MIXTURES COMPRISING AT LEAST TWO DIFFERENT NITRIFICATION INHIBITORS SELECTED FROM 2-(3,4-DIMETHYL-1H-PYRAZOL-1-YL)SUCCINIC ACID (DMPSA), 3,4-DIMETHYL PYRAZOLIUM GLYCOLATE (DMPG) AND OTHER COMPOUNDS” (BASF SE, priority 2017, published 2021)
